What was measured:
[1] = biological target: CK1δ (Homo sapiens (Human), UniProt P48730); assay: CK1δ kinase assay (Caliper LABCHIP electrophoretic separation of fluoresceinated peptide substrate and product); assay type: biochemical; settings: 200 pM CK1δ, 50 μM ATP, 1.5 μM peptide substrate, 22 hours at room temperature; read-out: CK1δ (IC50)
Summary of the method: (§1)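 Incubated for twenty-two hours at ambient temperature, then quenched with EDTA and analyzed by electrophoretic separation of unphosphorylated and phosphorylated peptide.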

[2] = biological target: CK1ε (Homo sapiens (Human), UniProt P49674); assay: CK1ε kinase assay (Caliper LABCHIP electrophoretic separation of fluoresceinated peptide substrate and product); assay type: biochemical; settings: 200 pM CK1ε, 50 μM ATP, 1.5 μM peptide substrate, 22 hours at room temperature; read-out: CK1ε (IC50)
Summary of the method: as §1

CK1ε, sequence (P49674 whole entry): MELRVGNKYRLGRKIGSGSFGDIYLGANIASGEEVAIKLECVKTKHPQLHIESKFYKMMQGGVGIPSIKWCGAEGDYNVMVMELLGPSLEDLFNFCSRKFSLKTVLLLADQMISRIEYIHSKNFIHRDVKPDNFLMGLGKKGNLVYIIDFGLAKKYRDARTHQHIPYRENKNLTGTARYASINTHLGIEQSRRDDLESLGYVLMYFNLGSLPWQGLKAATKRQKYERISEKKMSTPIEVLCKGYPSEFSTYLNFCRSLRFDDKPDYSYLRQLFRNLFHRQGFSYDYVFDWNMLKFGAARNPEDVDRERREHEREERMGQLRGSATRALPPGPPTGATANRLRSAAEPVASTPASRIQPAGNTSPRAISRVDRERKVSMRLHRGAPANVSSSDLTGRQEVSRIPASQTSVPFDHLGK
CK1δ, sequence (P48730 whole entry): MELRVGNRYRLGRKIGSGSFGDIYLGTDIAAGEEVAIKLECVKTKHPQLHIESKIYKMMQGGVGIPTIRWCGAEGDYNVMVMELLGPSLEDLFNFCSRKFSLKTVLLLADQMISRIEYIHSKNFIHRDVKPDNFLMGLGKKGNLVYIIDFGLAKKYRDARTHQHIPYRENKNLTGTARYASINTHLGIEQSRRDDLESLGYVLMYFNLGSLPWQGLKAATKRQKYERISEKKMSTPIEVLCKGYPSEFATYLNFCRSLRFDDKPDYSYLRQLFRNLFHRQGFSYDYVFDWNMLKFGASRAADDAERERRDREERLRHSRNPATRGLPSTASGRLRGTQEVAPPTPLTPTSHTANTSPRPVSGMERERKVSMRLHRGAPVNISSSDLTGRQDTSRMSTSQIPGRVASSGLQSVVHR

Structure (SMILES)	IC50 [1] [nM]	IC50 [2] [nM]
Cc1cc(F)cc(-c2nn3c(c2C(N)=O)CN(C(=O)Nc2ccc(C#N)c(F)c2)CC3)c1 [Compound 224, N^5-(4-Cyano-3-fluorophenyl)-2-(3-fluoro-5-methylphenyl)-6,7-dihydropyrazolo[1,5-a] pyrazine-3,5(4H)-dicarboxamide]	0.01 to 10	0.01 to 10
N#Cc1ccc(NC(=O)N2Cc3c(C(N)=O)c(-c4ccc(F)c(Cl)c4)nn3CC2C2CC2)cc1 (centres unmarked) [Compound 341]	100 to 2000	100 to 2000
NC(=O)c1c(-c2cccc(F)c2)nn2c1CN(C(=O)NCc1ccc(Cl)cc1Cl)CC2 [Compound 45, N^5-(2,4-Dichlorobenzyl)-2-(3-fluorophenyl)-6,7-dihydropyrazolo[1,5-a]pyrazine-3,5(4H)-dicarboxamide]	0.01 to 10	0.01 to 10
NC(=O)c1c(-c2cccc(F)c2)nn2c1CN(C(=O)Nc1ccc(-c3ccccc3)cc1)CC2 [Compound 62, N^5-([1,1′-Biphenyl]-4-yl)-2-(3-fluorophenyl)-6,7-dihydropyrazolo[1,5-a]pyrazine-3,5(4H)-dicarboxamide]	0.01 to 10	0.01 to 10
N#Cc1cccc(NC(=O)N2CCn3nc(-c4cccc(Cl)c4)c(C(N)=O)c3C2)c1 [Compound 161, 2-(3-Chlorophenyl)-N^5-(3-cyanophenyl)-6,7-dihydropyrazolo[1,5-a] pyrazine-3,5(4H)-dicarboxamide]	0.01 to 10	0.01 to 10
NC(=O)c1c(-c2cccc(F)c2)nn2c1CN(C(=O)Nc1ccnnc1)CC2 [Compound 82, 2-(3-Fluorophenyl)-N^5-(pyridazin-4-yl)-6,7-dihydropyrazolo[1,5-a]pyrazine-3,5(4H)-dicarboxamide]	0.01 to 10	0.01 to 10
N#Cc1ccc(NC(=O)N2Cc3c(C(N)=O)c(-c4ccc(F)c(Cl)c4)nn3C3(C2)CC(F)(F)C3)cc1 [Compound A36, 2′-(3-Chloro-4-fluorophenyl)-N^5′-(4-cyanophenyl)-3,3-difluoro-4′H-spiro[cyclobutane-1,7′-pyrazolo[1,5-a]pyrazine]-3′,5′(6′H)-dicarboxamide]	0.01 to 10	0.01 to 10
C[C@H]1CN(C(=O)Nc2ccc(C#N)cc2)Cc2c(C(N)=O)c(-c3cccc(F)c3)nn21 (single isomer, unassigned) [Compound A78, N^5-(4-Cyanophenyl)-2-(3-fluorophenyl)-7-methyl-6,7-dihydropyrazolo[1,5-a]pyrazine-3,5(4H)-dicarboxamide]	0.01 to 10	0.01 to 10
N#Cc1cccc(NC(=O)N2CCn3nc(-c4ccc(F)c(Cl)c4)c(C(N)=O)c3C2)c1 [Compound 200, 2-(3-Chloro-4-fluorophenyl)-N^5-(3-cyanophenyl)-6,7-dihydropyrazolo[1,5-a] pyrazine-3,5(4H)-dicarboxamide]	0.01 to 10	0.01 to 10
Cc1ccc(-c2nn3c(c2C(N)=O)CN(C(=O)Nc2ccc4ncsc4c2)CC3)cc1Cl [Compound 254, N^5-(Benzo[d]thiazol-6-yl)-2-(3-chloro-4-methylphenyl)-6,7-dihydropyrazolo[1,5-a] pyrazine-3,5(4H)-dicarboxamide]	0.01 to 10	0.01 to 10
Cc1cc(Cl)cc(-c2nn3c(c2C(N)=O)CN(C(=O)Nc2ccc(C#N)cc2)CC3)c1 [Compound A62, 2-(3-Chloro-5-methylphenyl)-N^5-(4-cyanophenyl)-6,7-dihydropyrazolo[1,5-a]pyrazine-3,5(4H)-dicarboxamide]	0.01 to 10	0.01 to 10
NC(=O)c1c(-c2cc(Cl)c(F)c(Cl)c2)nn2c1CN(C(=O)Nc1cc(Cl)cc(Cl)c1)CC2 [Compound 261, 2-(3,5-Dichloro-4-fluorophenyl)-N^5-(3,5-dichlorophenyl)-6,7-dihydropyrazolo[1,5-a] pyrazine-3,5(4H)-dicarboxamide]	0.01 to 10	0.01 to 10
CCOc1cc(Cl)cc(-c2nn3c(c2C(N)=O)CN(C(=O)Nc2ccc(C#N)c(Cl)c2)CC3)c1 [Compound A61, N^5-(3-Chloro-4-cyanophenyl)-2-(3-chloro-5-ethoxyphenyl)-6,7-dihydropyrazolo[1,5-a]pyrazine-3,5(4H)-dicarboxamide]	0.01 to 10	0.01 to 10
